Results from ChEMBL document CHEMBL5352506, “The Zinc-Binding Group Effect: Lessons from Non-Hydroxamic Acid Vorinostat Analogs” (J Med Chem, 2023).

Tests used:
Histone deacetylase 11 = molecular target: T1, Histone deacetylase 11 (Homo sapiens, UniProt Q96DB2); experiment: Inhibition of human recombinant HDAC11 using ArgHisLysLys(Ac) as substrate by fluorescence based analysis
T1 sequence (Q96DB2 whole entry): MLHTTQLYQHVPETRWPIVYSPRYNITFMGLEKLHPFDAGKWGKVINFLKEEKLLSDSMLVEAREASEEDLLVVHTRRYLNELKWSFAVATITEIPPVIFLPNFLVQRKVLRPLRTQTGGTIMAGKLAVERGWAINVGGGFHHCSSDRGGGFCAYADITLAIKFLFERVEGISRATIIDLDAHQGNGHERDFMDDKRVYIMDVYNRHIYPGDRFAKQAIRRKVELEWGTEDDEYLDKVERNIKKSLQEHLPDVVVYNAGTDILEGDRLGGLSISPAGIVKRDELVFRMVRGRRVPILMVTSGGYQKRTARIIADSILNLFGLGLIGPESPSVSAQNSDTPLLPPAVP

[1] = molecular target: T2, Polyamine deacetylase HDAC10 (Homo sapiens, UniProt Q969S8); experiment: Inhibition of human recombinant HDAC10 using ArgHisLysLys(Ac) as substrate by fluorescence based analysis
T2 sequence (Q969S8 whole entry): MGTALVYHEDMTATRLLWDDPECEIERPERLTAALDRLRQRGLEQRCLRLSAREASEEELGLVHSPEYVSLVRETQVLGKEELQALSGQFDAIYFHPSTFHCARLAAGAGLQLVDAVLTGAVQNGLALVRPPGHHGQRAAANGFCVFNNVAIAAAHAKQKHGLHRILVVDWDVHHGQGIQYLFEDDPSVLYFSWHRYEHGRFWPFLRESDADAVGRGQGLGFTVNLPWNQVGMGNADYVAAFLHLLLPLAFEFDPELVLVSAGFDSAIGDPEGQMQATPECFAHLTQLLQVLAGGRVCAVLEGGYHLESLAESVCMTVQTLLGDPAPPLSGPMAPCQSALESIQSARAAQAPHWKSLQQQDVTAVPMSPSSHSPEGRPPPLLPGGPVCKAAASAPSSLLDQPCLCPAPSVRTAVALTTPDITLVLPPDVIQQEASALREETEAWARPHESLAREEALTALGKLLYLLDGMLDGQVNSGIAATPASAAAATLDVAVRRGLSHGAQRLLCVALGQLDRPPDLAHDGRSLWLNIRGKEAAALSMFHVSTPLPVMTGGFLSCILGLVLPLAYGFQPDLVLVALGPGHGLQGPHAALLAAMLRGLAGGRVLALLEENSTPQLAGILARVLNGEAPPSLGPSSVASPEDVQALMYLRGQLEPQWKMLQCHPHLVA

Histone deacetylase 2 = Histone deacetylase 2 (Homo sapiens, UniProt Q92769); experiment: Inhibition of human recombinant HDAC2 using ArgHisLysLys(Ac) as substrate by fluorescence based analysis
Chain of Histone deacetylase 2 (Q92769 whole entry): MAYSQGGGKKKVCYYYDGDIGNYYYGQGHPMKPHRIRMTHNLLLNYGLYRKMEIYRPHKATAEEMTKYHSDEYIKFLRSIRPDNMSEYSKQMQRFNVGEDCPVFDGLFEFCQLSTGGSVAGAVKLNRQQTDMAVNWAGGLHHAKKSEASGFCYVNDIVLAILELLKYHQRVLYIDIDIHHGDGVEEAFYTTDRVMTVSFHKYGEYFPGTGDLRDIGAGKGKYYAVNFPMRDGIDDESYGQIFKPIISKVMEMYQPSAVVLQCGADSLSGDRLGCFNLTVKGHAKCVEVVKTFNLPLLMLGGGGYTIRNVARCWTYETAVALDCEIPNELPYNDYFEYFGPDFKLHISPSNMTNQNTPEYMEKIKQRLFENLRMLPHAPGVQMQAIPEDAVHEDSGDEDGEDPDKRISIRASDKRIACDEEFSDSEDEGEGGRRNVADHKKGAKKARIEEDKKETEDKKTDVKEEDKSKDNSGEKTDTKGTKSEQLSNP

[2] = molecular target: T3, Protein deacetylase HDAC6 (Homo sapiens, UniProt Q9UBN7); experiment: Inhibition of human recombinant HDAC6 using ArgHisLysLys(Ac) as substrate by fluorescence based analysis
T3 sequence (Q9UBN7 whole entry): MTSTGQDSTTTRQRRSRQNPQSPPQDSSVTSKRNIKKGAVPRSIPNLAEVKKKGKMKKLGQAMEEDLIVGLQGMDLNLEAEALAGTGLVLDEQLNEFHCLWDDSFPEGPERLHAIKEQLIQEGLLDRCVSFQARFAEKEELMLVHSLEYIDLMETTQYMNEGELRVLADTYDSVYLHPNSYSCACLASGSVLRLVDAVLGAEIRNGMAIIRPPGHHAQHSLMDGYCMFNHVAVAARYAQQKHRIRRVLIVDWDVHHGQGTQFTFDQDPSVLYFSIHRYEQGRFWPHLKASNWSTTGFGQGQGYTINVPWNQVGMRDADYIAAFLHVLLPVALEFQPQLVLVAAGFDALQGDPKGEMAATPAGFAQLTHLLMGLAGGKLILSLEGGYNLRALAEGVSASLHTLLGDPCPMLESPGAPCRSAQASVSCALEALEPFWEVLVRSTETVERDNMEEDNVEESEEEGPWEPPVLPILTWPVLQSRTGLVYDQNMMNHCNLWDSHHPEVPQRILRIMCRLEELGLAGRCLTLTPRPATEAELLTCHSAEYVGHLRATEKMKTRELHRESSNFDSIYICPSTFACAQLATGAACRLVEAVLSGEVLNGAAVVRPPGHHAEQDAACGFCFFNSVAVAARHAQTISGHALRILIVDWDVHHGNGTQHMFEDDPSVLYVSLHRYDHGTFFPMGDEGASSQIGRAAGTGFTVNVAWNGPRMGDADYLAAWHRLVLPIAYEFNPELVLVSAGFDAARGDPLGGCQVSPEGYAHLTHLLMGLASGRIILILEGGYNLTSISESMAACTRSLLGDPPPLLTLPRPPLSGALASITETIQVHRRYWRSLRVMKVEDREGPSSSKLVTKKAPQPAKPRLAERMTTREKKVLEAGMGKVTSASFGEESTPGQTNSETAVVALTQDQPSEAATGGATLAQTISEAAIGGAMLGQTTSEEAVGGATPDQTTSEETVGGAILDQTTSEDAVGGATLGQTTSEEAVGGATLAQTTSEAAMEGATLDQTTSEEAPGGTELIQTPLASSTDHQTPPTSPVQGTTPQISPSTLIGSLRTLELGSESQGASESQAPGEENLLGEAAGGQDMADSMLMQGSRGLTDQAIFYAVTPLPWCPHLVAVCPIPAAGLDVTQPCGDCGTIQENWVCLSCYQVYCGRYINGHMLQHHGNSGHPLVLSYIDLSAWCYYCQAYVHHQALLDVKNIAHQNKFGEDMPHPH

Histone deacetylase 5 = Histone deacetylase 5 (Homo sapiens, UniProt Q9UQL6); experiment: Inhibition of human recombinant HDAC5 using ArgHisLysLys(Ac) as substrate by fluorescence based analysis
Chain of Histone deacetylase 5 (Q9UQL6 whole entry): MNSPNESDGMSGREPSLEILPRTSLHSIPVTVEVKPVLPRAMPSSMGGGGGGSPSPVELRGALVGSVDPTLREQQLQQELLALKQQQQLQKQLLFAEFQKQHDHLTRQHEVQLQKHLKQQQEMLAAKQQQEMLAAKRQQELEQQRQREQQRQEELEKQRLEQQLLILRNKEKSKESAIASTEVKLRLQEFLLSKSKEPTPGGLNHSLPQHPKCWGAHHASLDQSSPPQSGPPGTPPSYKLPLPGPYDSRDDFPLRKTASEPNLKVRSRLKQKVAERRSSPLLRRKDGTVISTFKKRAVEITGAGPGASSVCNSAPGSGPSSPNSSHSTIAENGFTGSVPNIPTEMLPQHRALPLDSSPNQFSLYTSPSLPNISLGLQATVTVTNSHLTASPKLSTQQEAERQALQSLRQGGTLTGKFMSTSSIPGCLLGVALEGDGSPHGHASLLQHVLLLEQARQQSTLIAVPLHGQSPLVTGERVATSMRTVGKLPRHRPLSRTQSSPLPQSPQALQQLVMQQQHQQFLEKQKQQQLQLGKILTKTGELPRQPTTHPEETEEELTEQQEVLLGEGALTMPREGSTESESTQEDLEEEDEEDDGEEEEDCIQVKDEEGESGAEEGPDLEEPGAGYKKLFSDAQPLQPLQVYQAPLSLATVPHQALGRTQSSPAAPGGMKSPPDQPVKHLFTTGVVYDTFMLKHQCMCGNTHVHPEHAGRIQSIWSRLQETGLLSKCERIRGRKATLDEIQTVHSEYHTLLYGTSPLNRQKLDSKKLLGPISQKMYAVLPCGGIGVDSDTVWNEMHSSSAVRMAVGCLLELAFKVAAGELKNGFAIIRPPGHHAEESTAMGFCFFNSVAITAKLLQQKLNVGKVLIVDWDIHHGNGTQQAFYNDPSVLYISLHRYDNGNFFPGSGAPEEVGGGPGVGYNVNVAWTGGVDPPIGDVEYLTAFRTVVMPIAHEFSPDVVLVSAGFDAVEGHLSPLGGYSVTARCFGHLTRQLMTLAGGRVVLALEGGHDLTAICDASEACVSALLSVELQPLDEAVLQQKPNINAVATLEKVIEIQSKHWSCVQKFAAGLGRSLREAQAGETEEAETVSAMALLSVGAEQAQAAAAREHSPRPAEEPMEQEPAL

Histone deacetylase 9 = Histone deacetylase 9 (Homo sapiens, UniProt Q9UKV0); experiment: Inhibition of human recombinant HDAC9 using ArgHisLysLys(Ac) as substrate by fluorescence based analysis
Chain of Histone deacetylase 9 (Q9UKV0 whole entry): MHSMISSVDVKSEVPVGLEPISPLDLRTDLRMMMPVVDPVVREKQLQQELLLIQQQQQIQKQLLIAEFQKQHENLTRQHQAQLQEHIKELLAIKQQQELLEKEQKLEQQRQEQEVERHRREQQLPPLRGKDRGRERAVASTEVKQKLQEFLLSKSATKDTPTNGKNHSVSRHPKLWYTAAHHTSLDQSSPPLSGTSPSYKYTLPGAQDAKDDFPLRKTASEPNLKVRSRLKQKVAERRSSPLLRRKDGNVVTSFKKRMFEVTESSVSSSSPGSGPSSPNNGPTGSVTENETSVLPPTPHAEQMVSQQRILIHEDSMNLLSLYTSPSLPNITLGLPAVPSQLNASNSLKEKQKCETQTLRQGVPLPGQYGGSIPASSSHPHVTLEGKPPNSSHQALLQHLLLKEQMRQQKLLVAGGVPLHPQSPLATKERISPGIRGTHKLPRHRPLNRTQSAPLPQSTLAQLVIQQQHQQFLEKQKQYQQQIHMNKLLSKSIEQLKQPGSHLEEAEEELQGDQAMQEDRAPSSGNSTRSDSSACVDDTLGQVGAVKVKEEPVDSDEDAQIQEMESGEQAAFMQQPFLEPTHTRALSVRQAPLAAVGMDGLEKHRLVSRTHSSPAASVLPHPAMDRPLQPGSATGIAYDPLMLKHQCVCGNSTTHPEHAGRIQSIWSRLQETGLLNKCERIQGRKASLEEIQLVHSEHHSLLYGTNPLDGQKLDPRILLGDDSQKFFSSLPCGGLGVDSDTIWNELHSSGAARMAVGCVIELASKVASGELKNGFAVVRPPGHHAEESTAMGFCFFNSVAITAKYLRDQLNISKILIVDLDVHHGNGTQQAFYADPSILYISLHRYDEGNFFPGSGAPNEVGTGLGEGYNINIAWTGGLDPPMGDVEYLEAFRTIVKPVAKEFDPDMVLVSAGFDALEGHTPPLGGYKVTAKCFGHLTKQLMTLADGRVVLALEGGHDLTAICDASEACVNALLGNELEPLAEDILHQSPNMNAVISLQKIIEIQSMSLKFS

Histone deacetylase 3 = Histone deacetylase 3 (Homo sapiens, UniProt O15379); experiment: Inhibition of human recombinant HDAC3 using ArgHisLysLys(Ac) as substrate by fluorescence based analysis
Chain of Histone deacetylase 3 (O15379 whole entry): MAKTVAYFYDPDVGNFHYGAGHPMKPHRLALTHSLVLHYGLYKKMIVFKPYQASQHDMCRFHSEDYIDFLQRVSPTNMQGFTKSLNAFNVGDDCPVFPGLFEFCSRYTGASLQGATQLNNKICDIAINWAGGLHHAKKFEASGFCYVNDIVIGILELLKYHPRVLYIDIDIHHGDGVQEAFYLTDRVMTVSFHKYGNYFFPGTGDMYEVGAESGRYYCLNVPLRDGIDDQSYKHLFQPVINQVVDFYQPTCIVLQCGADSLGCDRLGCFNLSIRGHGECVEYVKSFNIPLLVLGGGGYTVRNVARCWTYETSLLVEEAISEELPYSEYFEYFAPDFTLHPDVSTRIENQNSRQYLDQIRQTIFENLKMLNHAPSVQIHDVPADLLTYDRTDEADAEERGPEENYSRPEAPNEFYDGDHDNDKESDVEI

| SMILES | IC50 (Histone deacetylase 11) [mM] | IC50 [1] [mM] | IC50 (Histone deacetylase 2) [mM] | IC50 [2] [µM] | IC50 (Histone deacetylase 5) [mM] | IC50 (Histone deacetylase 9) [mM] | IC50 (Histone deacetylase 3) [mM] |
| --- | --- | --- | --- | --- | --- | --- | --- |
| O=C(CCCCC[C@@H]1CN(O)C1=O)Nc1ccccc1 | > 1 | > 1 | > 1 | 132 | > 1 | > 1 | > 1 |
| Nc1ccccc1N1CC(CCCCCC(=O)Nc2ccccc2)C1=O (stereo not drawn) | > 1 | > 1 | > 1 | > 1000 | > 1 | > 1 | > 1 |
| O=C(CCCCC[C@H]1CN(O)C1=O)Nc1ccccc1 | > 1 | > 1 | > 1 | 174 | > 1 | > 1 | > 1 |
| O=C(CCCCCC1CNC1=O)Nc1ccccc1 (stereo not drawn) | > 1 | > 1 | > 1 | 74.5 | > 1 | > 1 | > 1 |
